Like-named read-outs stand apart in the source and are kept apart here. Marks after values point to notes of the source that are not given here.
Test system: female obese Zucker rats
Assay: Serum lipid and glycemic control variables in chow-fed obese female Zucker rats, daily oral gavage for two weeks
Assay type: in vivo, rat
Conditions: for change in vivo at 100 mg/kg: Rattus norvegicus, Table 9; for Glucose / HDL-C / NEFA / Non-HDL-C / TG / Insulin: serum, mean ± SEM; for Insulin: Tables 10, 11
Outline: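 Female obese Zucker fa rats, 10–12 wk, 400–500 g, chow-fed, dosed daily by oral gavage for 14 days in CMC/Tween 20 or ethanol/PEG-200 vehicle. After a 6-h fast, serum was sampled pre-dose, day 7 and day 14. Triglycerides, total cholesterol, NEFA and β-hydroxybutyrate were measured, plus lipoprotein cholesterol by gel-filtration profiling.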

SMILES: CC(C)(CO)CCCCC(=O)CCCCC(C)(C)CO [Compound 214c, 1,13-Dihydroxy-2,2,12,12-tetramethyltridecan-7-one]
- HDL-C, percent increase (+) or decrease (−) of the pretreatment control value (3 mg/kg daily oral, 1 wk): (−10) percent
- HDL-C, percent increase (+) or decrease (−) of the pretreatment control value (3 mg/kg daily oral, 2 wk): (−19) percent
- NEFA, percent increase (+) or decrease (−) of the pretreatment control value (3 mg/kg daily oral, 2 wk): (+145) percent
- HDL-C, percent increase (+) or decrease (−) of the pretreatment control value (10 mg/kg daily oral, 1 wk): (+113) percent
- NEFA, percent increase (+) or decrease (−) of the pretreatment control value (10 mg/kg daily oral, 1 wk): (−18) percent
- TG, percent increase (+) or decrease (−) of the pretreatment control value (10 mg/kg daily oral, 1 wk): (−23) percent
- HDL-C, percent increase (+) or decrease (−) of the pretreatment control value (10 mg/kg daily oral, 2 wk): (+115) percent
- HDL-C, percent increase (+) or decrease (−) of the pretreatment control value (30 mg/kg daily oral, 1 wk): (+140) percent
- NEFA, percent increase (+) or decrease (−) of the pretreatment control value (30 mg/kg daily oral, 1 wk): (−21) percent
- TG, percent increase (+) or decrease (−) of the pretreatment control value (30 mg/kg daily oral, 1 wk): (−27) percent
- HDL-C, percent increase (+) or decrease (−) of the pretreatment control value (30 mg/kg daily oral, 2 wk): (+142) percent
- Non-HDL-C, percent increase (+) or decrease (−) of the pretreatment control value (30 mg/kg daily oral, 2 wk): (+127) percent
- HDL-C, percent increase (+) or decrease (−) of the pretreatment control value (100 mg/kg daily oral, 1 wk): (+173) percent
- NEFA, percent increase (+) or decrease (−) of the pretreatment control value (100 mg/kg daily oral, 1 wk): (−30) percent
- TG, percent increase (+) or decrease (−) of the pretreatment control value (100 mg/kg daily oral, 1 wk): (−54) percent
- HDL-C, percent increase (+) or decrease (−) of the pretreatment control value (100 mg/kg daily oral, 2 wk): (+176) percent
- NEFA, percent increase (+) or decrease (−) of the pretreatment control value (100 mg/kg daily oral, 2 wk): (−33) percent
- TG, percent increase (+) or decrease (−) of the pretreatment control value (100 mg/kg daily oral, 2 wk): (−33) percent
- change in vivo at 100 mg/kg (168 h, 100 mg/kg daily oral, 1 wk, read-out: HDL-Cholesterol, Percent Change from Pre-Treatment): 110%
- change in vivo at 100 mg/kg (168 h, 100 mg/kg daily oral, 1 wk, read-out: NonHDL-Cholesterol, Percent Change from Pre-Treatment): -23%
- change in vivo at 100 mg/kg (168 h, 100 mg/kg daily oral, 1 wk, read-out: TG, Percent Change from Pre-Treatment): -54%
- change in vivo at 100 mg/kg (336 h, 100 mg/kg daily oral, 2 wk, read-out: HDL-Cholesterol, Percent Change from Pre-Treatment): 126%
- change in vivo at 100 mg/kg (336 h, 100 mg/kg daily oral, 2 wk, read-out: NonHDL-Cholesterol, Percent Change from Pre-Treatment): -10%
- change in vivo at 100 mg/kg (336 h, 100 mg/kg daily oral, 2 wk, read-out: TG, Percent Change from Pre-Treatment): -29%
- Glucose (3 mg/kg daily oral, 1 wk): 106 ± 2 mg/dL
- HDL-C (3 mg/kg daily oral, 1 wk): 43 ± 4^a mg/dl
- NEFA (3 mg/kg daily oral, 1 wk): 1.2 ± 0.05 mg/dL
- Non-HDL-C (3 mg/kg daily oral, 1 wk): 25 ± 3 mg/dL
- TG (3 mg/kg daily oral, 1 wk): 800 ± 75 mg/dL
- Insulin (3 mg/kg daily oral, 1 wk): 7.5 ± 0.8 ng/mL
- Glucose (3 mg/kg daily oral, 2 wk): 103 ± 3 mg/dL
- HDL-C (3 mg/kg daily oral, 2 wk): 39 ± 4^a mg/dl
- NEFA (3 mg/kg daily oral, 2 wk): 1.6 ± 0.13
- Non-HDL-C (3 mg/kg daily oral, 2 wk): 22 ± 2 mg/dL
- TG (3 mg/kg daily oral, 2 wk): 781 ± 65 mg/dL
- Insulin (3 mg/kg daily oral, 2 wk): 7.8 ± 0.6 ng/mL
- Glucose (10 mg/kg daily oral, 1 wk): 110 ± 2 mg/dL
- HDL-C (10 mg/kg daily oral, 1 wk): 52 ± 3^a mg/dl
- NEFA (10 mg/kg daily oral, 1 wk): 0.98 ± 0.08
- Non-HDL-C (10 mg/kg daily oral, 1 wk): 21 ± 2 mg/dL
- TG (10 mg/kg daily oral, 1 wk): 602 ± 37^a mg/dl
- Insulin (10 mg/kg daily oral, 1 wk): 7.5 ± 0.4 ng/mL
- Glucose (10 mg/kg daily oral, 2 wk): 110 ± 3 mg/dL
- HDL-C (10 mg/kg daily oral, 2 wk): 53 ± 4^a mg/dl
- NEFA (10 mg/kg daily oral, 2 wk): 1.0 ± 0.10 mg/dL
- Non-HDL-C (10 mg/kg daily oral, 2 wk): 25 ± 2 mg/dL
- TG (10 mg/kg daily oral, 2 wk): 730 ± 52 mg/dL
- Insulin (10 mg/kg daily oral, 2 wk): 7.8 ± 0.5 ng/mL
- Glucose (30 mg/kg daily oral, 1 wk): 112 ± 13 mg/dL
- HDL-C (30 mg/kg daily oral, 1 wk): 60 ± 3^a mg/dl
- NEFA (30 mg/kg daily oral, 1 wk): 1.1 ± 0.05
- Non-HDL-C (30 mg/kg daily oral, 1 wk): 28 ± 2 mg/dL
- TG (30 mg/kg daily oral, 1 wk): 726 ± 49^a mg/dl
- Insulin (30 mg/kg daily oral, 1 wk): 0.091 ± 0.006 ng/mL
- Glucose (30 mg/kg daily oral, 2 wk): 120 ± 3 mg/dL
- HDL-C (30 mg/kg daily oral, 2 wk): 61 ± 4^a mg/dl
- NEFA (30 mg/kg daily oral, 2 wk): 1.2 ± 0.10 mg/dL
- Non-HDL-C (30 mg/kg daily oral, 2 wk): 38 ± 5^a mg/dl
- TG (30 mg/kg daily oral, 2 wk): 985 ± 110 mg/dL
- Insulin (30 mg/kg daily oral, 2 wk): 0.098 ± 0.007 ng/mL
- Glucose (100 mg/kg daily oral, 1 wk): 120 ± 5 mg/dL
- HDL-C (100 mg/kg daily oral, 1 wk): 78 ± 5^a mg/dl
- NEFA (100 mg/kg daily oral, 1 wk): 0.98 ± 0.04
- Non-HDL-C (100 mg/kg daily oral, 1 wk): 23 ± 1 mg/dL
- TG (100 mg/kg daily oral, 1 wk): 485 ± 29^a mg/dl
- Insulin (100 mg/kg daily oral, 1 wk): 0.109 ± 0.01 ng/mL
- Glucose (100 mg/kg daily oral, 2 wk): 118 ± 3 mg/dL
- HDL-C (100 mg/kg daily oral, 2 wk): 79 ± 6^a mg/dl
- NEFA (100 mg/kg daily oral, 2 wk): 0.94 ± 0.04
- Non-HDL-C (100 mg/kg daily oral, 2 wk): 32 ± 2 mg/dL
- TG (100 mg/kg daily oral, 2 wk): 702 ± 53^a mg/dl
- Insulin (100 mg/kg daily oral, 2 wk): 0.11 ± 0.009 ng/mL
